Like-named read-outs stand apart in the source and are kept apart here.

In one test the target is T1, HDAC7 (Homo sapiens, UniProt Q8WUI4).
T1 sequence (Q8WUI4 1-952): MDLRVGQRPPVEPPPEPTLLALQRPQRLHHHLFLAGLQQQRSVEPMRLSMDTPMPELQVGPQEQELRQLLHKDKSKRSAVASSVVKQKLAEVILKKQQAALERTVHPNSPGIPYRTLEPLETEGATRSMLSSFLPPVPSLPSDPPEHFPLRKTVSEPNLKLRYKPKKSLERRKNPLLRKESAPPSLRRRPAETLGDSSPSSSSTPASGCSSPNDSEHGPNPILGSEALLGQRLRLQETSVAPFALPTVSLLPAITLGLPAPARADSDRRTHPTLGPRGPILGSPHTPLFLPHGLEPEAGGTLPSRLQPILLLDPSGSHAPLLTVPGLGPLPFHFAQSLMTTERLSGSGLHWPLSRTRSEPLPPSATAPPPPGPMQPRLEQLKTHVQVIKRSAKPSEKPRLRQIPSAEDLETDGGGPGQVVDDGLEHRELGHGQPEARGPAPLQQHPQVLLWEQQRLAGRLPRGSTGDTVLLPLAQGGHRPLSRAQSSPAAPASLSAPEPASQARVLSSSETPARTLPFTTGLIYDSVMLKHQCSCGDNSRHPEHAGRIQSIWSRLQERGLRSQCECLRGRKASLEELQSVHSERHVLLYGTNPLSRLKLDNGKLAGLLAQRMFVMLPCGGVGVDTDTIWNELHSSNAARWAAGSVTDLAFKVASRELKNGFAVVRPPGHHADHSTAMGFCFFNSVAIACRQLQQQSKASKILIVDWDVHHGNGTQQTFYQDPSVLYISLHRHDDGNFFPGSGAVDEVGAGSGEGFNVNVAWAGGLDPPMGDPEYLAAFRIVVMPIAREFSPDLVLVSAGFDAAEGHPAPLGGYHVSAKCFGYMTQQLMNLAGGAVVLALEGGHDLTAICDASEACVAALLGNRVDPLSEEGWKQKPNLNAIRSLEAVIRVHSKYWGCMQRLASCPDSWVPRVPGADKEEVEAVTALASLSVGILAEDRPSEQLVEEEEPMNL
The test can be described thus: HDAC biochemical activity measurement (fluorescent substrate deacetylation).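 Note: fluorogenic deacetylation assay using acetyl-lysine substrate at 20 µM, enzyme and compound incubated 30 min at 37 °C, then developer added, fluorescence read at 360/460 nm.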 To be noted: HDAC7; 37° C. 30 minutes.

For test [1], the system named is A549 (human lung cancer cells). The test can be described thus: MTT cancer cell growth inhibition. Format: cell-based. To be noted: Homo sapiens, A549, 72 h, MTT, 72 hours incubation, read-out: GI50 A54. In outline: (§1)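 72 h exposure, final drug 10^−5–10^−10 M, triplicate wells; 1500 cells/well plated the day before; medium DMEM or 1640 + 10% FBS; 37° C./5% CO2. MTT (5 mg/ml stock) 4 h, DMSO solubilisation, A570 → % viability → GI50.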

The subject of test [2] is BGC-823 (human gastric cancer cells). Description: MTT cancer cell growth inhibition. Format: cell-based. To be noted: Homo sapiens, BGC-823, 72 h, MTT, 72 hours incubation, read-out: GI50 BG. In outline: as §1
In test [3] the test system is Bel-7402 (human hepatoma cells). Description: MTT cancer cell growth inhibition. To be noted: Homo sapiens, Bel-7402, 72 h, MTT, 72 hours incubation, Bel-7402 cells; read-out: GI50 Bel-7402. Format: cell-based. The gist of the method:
as §1

Test [4] deals with DU145 (human prostate cancer cells). Description: MTT cancer cell growth inhibition. To be noted: Homo sapiens, DU-145, 72 h, MTT, 72 hours incubation, read-out: GI50 Du1. Format: cell-based. In outline: as §1
The test system of test [5] is H1975 (non-small cell lung adenocarcinoma). Description: MTT cancer cell growth inhibition. Format: cell-based. To be noted: Homo sapiens, NCI-H1975, 72 h, MTT, 72 hours incubation, H1975 cells; read-out: GI50 H1975. The gist of the method: as §1
The test system of test [6] is HCC827 (human non-small cell lung cancer cells). The test can be described thus: MTT cancer cell growth inhibition. Format: cell-based. The conditions noted are these: Homo sapiens, HCC827, 72 h, MTT, 72 hours incubation, HCC827 cells; read-out: GI50 HCC827. The gist of the method:
as §1

Test [7] has as its system HT1080 (human fibrosarcoma cells). Description: MTT cancer cell growth inhibition. Format: cell-based. To be noted: Homo sapiens, HT-1080, 72 h, MTT, 72 hours incubation, read-out: GI50 HT1. The gist of the method: as §1
Test [8] deals with Hela (human cervical cancer cells). Description: MTT cancer cell growth inhibition. Format: cell-based. The conditions noted are these: Homo sapiens, HeLa, 72 h, MTT, 72 hours incubation, read-out: GI50 Hela. The gist of the method: as §1
Test [9] relates to Huh-7 (human hepatoma cells). The test can be described thus: MTT cancer cell growth inhibition. Format: cell-based. The conditions noted are these: Homo sapiens, Huh-7, 72 h, MTT, 72 hours incubation, Huh-7 cells; read-out: GI50 Huh-7. In outline: as §1
The subject of test [10] is K562 (human leukemia cells). Description: MTT cancer cell growth inhibition. Format: cell-based. To be noted: Homo sapiens, K562, 72 h, MTT, 72 hours incubation, K562 cells; read-out: GI50 K562. In outline:
as §1

The test system of test [11] is KBM-5 (human chronic myelogenous leukemia). The test can be described thus: MTT cancer cell growth inhibition. Format: cell-based. To be noted: Homo sapiens, KBM5, 72 h, MTT, 72 hours incubation, KBM-5 cells; read-out: GI50 KBM-5. In outline: as §1
Test [12] deals with KBM5-T315I (human chronic myelogenous leukemia). Description: MTT cancer cell growth inhibition. Format: cell-based. To be noted: Homo sapiens, 72 h, MTT, 72 hours incubation, KBM5-T315I cells; read-out: GI50 KBM5-T315I. The gist of the method:
as §1

Test [13] deals with MCF-7 (human breast cancer cells). The test can be described thus: MTT cancer cell growth inhibition. Format: cell-based. The conditions noted are these: Homo sapiens, MCF7, 72 h, 72 hours incubation, read-out: GI50 MCF. The gist of the method:
as §1

The subject of test [14] is MDA-MB-231 (breast cancer cells). The test can be described thus: MTT cancer cell growth inhibition. Format: cell-based. To be noted: Homo sapiens, MDA-MB-231, 72 h, read-out: GI50 MDA-MB-231, MTT, 72 hours incubation, MDA-MB-231 cells. The gist of the method:
as §1

Test [15] has as its system MOLT-4 (human acute lymphoblastic leukemia cells). Description: MTT cancer cell growth inhibition. The conditions noted are these: Homo sapiens, MOLT-4, 72 h, MTT, 72 hours incubation, read-out: GI50 Mol. Format: cell-based. In outline: as §1
Test [16] deals with N-87 (human gastric cancer cells). Description: MTT cancer cell growth inhibition. Format: cell-based. To be noted: Homo sapiens, 72 h, MTT, 72 hours incubation, N-87 cells; read-out: GI50 N-87. The gist of the method:
as §1

The subject of test [17] is PANC-1 (Pac-1, human pancreatic cancer cells). Description: MTT cancer cell growth inhibition. Format: cell-based. The conditions noted are these: Homo sapiens, PANC-1, 72 h, MTT, 72 hours incubation, read-out: GI50 PAN. In outline:
as §1

For test [18], the system named is SGC-7901 (human gastric cancer cells). The test can be described thus: MTT cancer cell growth inhibition. Format: cell-based. To be noted: Homo sapiens, SGC-7901, 72 h, MTT, 72 hours incubation, SGC-7901 cells; read-out: GI50 SGC-7901. In outline: as §1
For test [19], the system named is U937 (human leukemia cells). Description: MTT cancer cell growth inhibition. The conditions noted are these: Homo sapiens, U-937, 72 h, MTT, 72 hours incubation, read-out: GI50 U93. Format: cell-based. In outline:
as §1

Test [20] concerns lncap (prostate cancer cells). Description: MTT cancer cell growth inhibition. Format: cell-based. The conditions noted are these: Homo sapiens, LNCaP, 72 h, MTT, 72 hours incubation, read-out: GI50 lnca. The gist of the method: as §1

As usually defined, the GI50 is the concentration at which growth is held to half of that of the control. As for `C/C=C1\NC(=O)c2ccc(SC)c(n2)CNC(=O)C[C@@H](/C=C/CCSC(=O)CC)OC(=O)[C@H](C(C)C)NC1=O` [Compound 164], the “IC50 HDAC7” value at HDAC7 is given as “no activity”. Moreover, the 50% growth inhibitory concentration (GI50) in [1] (A549 cells) was 0.06 µM; in test [2] (BGC-823 cells), 0.34 µM; in test [3], 0.038 µM; in test [4] (DU145 cells), 0.05 µM; in test [5], 0.081 µM; in test [6] it was 0.028 µM. In addition, the GI50 in [7] (HT1080 cells) amounted to 0.02 µM; in test [8] (Hela cells), 0.02 µM; in [9], 0.095 µM; in test [10], 0.062 µM; in [11], 0.073 µM; in test [12], 0.047 µM. For the same molecule, the concentration for 50% growth inhibition (GI50) was 0.03 µM in test [13] (MCF-7 cells); 0.096 µM in test [14]; 0.05 µM in test [15] (MOLT-4 cells); 0.041 µM in [16]; 0.08 µM in [17] (PANC-1 cells); 0.028 µM in test [18]. In addition, the GI50 is 0.06 µM in test [19] (U937 cells) and 0.03 µM in [20] (lncap cells).
Take `C/C=C1\NC(=O)c2nccc(n2)CNC(=O)C[C@@H](/C=C/CCS)OC(=O)[C@H](C)NC1=O` [Compound 144]: the “IC50 HDAC7” value on HDAC7 is “no activity”. Besides, the GI50 in [1] is 0.07 µM; in test [2], 0.07 µM; in test [3], 0.035 µM; in test [4], 0.06 µM; in test [5], 0.038 µM; in test [6], 0.012 µM. In addition, the GI50 in test [7] amounted to 0.07 µM; in [8] it was 0.05 µM; in test [9], 0.023 µM; in [10], 0.011 µM; in test [11], 0.011 µM; in test [12], 0.127 µM. For the same molecule, the GI50 in test [13] worked out at 0.06 µM; in test [14], 0.037 µM; in test [15], 0.07 µM; in [16] it was 0.029 µM; in test [17] it was 0.07 µM; in test [18], 0.041 µM. Moreover, the 50% growth inhibitory concentration (GI50) in [19] is 0.07 µM; in [20], 0.05 µM.
With `CC(=O)SCC/C=C/[C@@H]1CC(=O)NCc2nc(ccc2F)C(=O)NC(=C(C)C)C(=O)N[C@@H](C(C)C)C(=O)O1` [Compound 89], the “IC50 HDAC7” value against HDAC7 was “no activity”. Moreover, the 50% growth inhibitory concentration (GI50) in test [1] worked out at 0.03 µM; in test [2], 0.01 µM; in test [3], 0.083 µM; in test [4], 0.01 µM; in test [5], 0.026 µM; in test [6] it was 0.083 µM. Further, the GI50 in test [7] stood at 0.08 µM; in test [8], 0.09 µM; in test [9] it was 0.031 µM; in [10] it was 0.016 µM; in test [11] it was 0.093 µM; in test [12], 0.038 µM. For the same molecule, the GI50 in [13] was found to be 0.03 µM; in [14] it was 0.031 µM; in test [15] it was 0.03 µM; in test [16] it was 0.013 µM; in test [17], 0.08 µM; in [18], 0.034 µM. Further, the concentration for 50% growth inhibition (GI50) worked out at 0.02 µM in test [19] and 0.03 µM in [20].
`C/C=C1\NC(=O)c2cc(SC)cc(n2)CNC(=O)C[C@@H](/C=C/CCSC(=O)CCCCCCC)OC(=O)[C@H](C)NC1=O` [Compound 181]: the “IC50 HDAC7” value at HDAC7 was “no activity”. For the same molecule, the GI50 in test [1] (A549 cells) came to 0.05 µM; in test [2] (BGC-823 cells), 0.03 µM; in test [3], 0.038 µM; in [4] (DU145 cells), 0.06 µM; in test [5] it was 0.035 µM; in [6], 0.041 µM. In addition, the GI50 in test [7] (HT1080 cells) was found to be 0.06 µM; in test [8] (Hela cells), 0.07 µM; in test [9] it was 0.037 µM; in [10] it was 0.023 µM; in test [11] it was 0.015 µM; in test [12] it was 0.033 µM. Moreover, the GI50 in test [13] (MCF-7 cells) came to 0.07 µM; in test [14] it was 0.018 µM; in [15] (MOLT-4 cells), 0.08 µM; in test [16], 0.036 µM; in test [17] (PANC-1 cells), 0.04 µM; in test [18] it was 0.028 µM. Moreover, the 50% growth inhibitory concentration (GI50) in test [19] (U937 cells) came out at 0.02 µM; in test [20] (lncap cells) it was 0.08 µM.

These data come from patent US10065990B2, “Cyclic peptide compound, and preparation method, pharmaceutical composition and use thereof” (HANGZHOU GUANYU BIO-MEDICAL CO., LTD, priority 2013, dated 2018).
